Among the data in PubChem BioAssay (NCI) are GI50 and TGI values, retold here.

Some test systems named below: LXFL 529 NSCLC; K-562 leukemia; SW-620 colon; COLO 205 colon; MCF7 breast; DU-145 prostate; SNB-75 CNS; A498 renal; PC-3 prostate.
Assay in all cases: NCI-60 cell line screen, 48 h

Each structure is given as a SMILES string. “And” between values parts separate entries of the source, which are not always exact repeats. Equal values may be shown once.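 Dose response: 5 concentrations. Exposure: 48 h. Format: 96-well plates. Endpoint: linear interpolation; highest concentration if not reached. GI50 marks 50% less growth. The concentration for full growth arrest is given as TGI.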 A value given as a limit tells only on which side of the number the result lay.

Regarding `CC(=O)[CH-]C(=O)c1ccccc1.CC(=O)[CH-]C(=O)c1ccccc1.CC1(C)C2CCC1(C)C([O-])C2.CC1(C)C2CCC1(C)C([O-])C2.[Ti+4]`, the GI50 is 23.7 µM with LXFL 529 NSCLC, 30.5 µM in the assay with K-562 leukemia, 36.6 µM in the assay on SW-620 colon and 38.4 µM with COLO 205 colon. Besides, the TGI in the assay on LXFL 529 NSCLC, in the assay on K-562 leukemia, with SW-620 colon and with COLO 205 colon was greater than 100 µM throughout.
As to `Cc1c(-c2c(-c3ccc(F)o3)sc3ncnc(O[C@H](Cc4ccccc4OCc4ccnn4CC(F)(F)F)C(=O)O)c23)ccc(OCCN2CCN(C)CC2)c1Cl`, the GI50 with MCF7 breast was 0.375 µM; in the assay on K-562 leukemia it was 3.71 µM; in the assay on SW-620 colon, 5.88 µM; with COLO 205 colon, 4.29 µM; in the assay on DU-145 prostate, 2.33 µM; in the assay on SNB-75 CNS, 1.92 µM. The GI50 is 3.03 µM with A498 renal and 3.16 µM in the assay with PC-3 prostate. The TGI in the assay on MCF7 breast came out at 4.61 µM; in the assay on K-562 leukemia it was 14.5 µM; in the assay on SW-620 colon it was 17.2 µM; in the assay with COLO 205 colon, 9.26 µM; with DU-145 prostate, 5.36 µM; in the assay on SNB-75 CNS, 5.61 µM. Besides, the values for the TGI in the assay on A498 renal and in the assay on PC-3 prostate were 9.6 µM and 7.28 µM, respectively.
Consider `O=C(CN1CCN(CCCOc2c(-c3ccccc3)oc3ccccc3c2=O)CC1)Nc1ccc(Cl)cc1C(=O)c1ccccc1Cl`, for which the GI50 was 3.5 µM with MCF7 breast; 4.18 µM in the assay on K-562 leukemia; 0.336 µM with SW-620 colon; 13.4 µM in the assay on COLO 205 colon; 19.8 µM in the assay with DU-145 prostate; 4.39 µM with SNB-75 CNS. Moreover, the GI50 with A498 renal is 21.5 µM; in the assay with PC-3 prostate it was 3.18 µM. The TGI in the assay on MCF7 breast was 26.5 µM; in the assay with K-562 leukemia it was greater than 100 µM; in the assay with SW-620 colon, greater than 100 µM; in the assay on COLO 205 colon, 30.2 µM; with DU-145 prostate, greater than 100 µM; with SNB-75 CNS it was 47.1 µM. Moreover, the figures for the TGI in the assay on A498 renal and in the assay on PC-3 prostate were 81.8 µM and 21.4 µM, respectively.
With `COc1ncc(-c2ccc3nccc(-c4ccnnc4)c3c2)cc1NS(=O)(=O)c1ccc(F)cc1F`, the GI50 in the assay on MCF7 breast was 0.00101 µM and < 0.01 µM; with SW-620 colon, 0.0151 µM and 0.0225 µM; in the assay with COLO 205 colon, 0.00561 µM and < 0.01 µM; with DU-145 prostate, 0.0119 µM and 0.0164 µM; in the assay with SNB-75 CNS, 0.00133 µM and < 0.01 µM; in the assay on A498 renal, 0.0015 µM. Moreover, the GI50 in the assay on PC-3 prostate is 0.00432 µM and < 0.01 µM. In addition, the TGI is > 10 µM and 11 µM with MCF7 breast; greater than 100 µM in the assay on K-562 leukemia; > 4.47 µM and 1.92 µM in the assay with SW-620 colon; 0.542 µM and 0.257 µM with COLO 205 colon; > 10 µM and 13 µM in the assay on DU-145 prostate; 0.0135 µM and < 0.0156 µM in the assay with SNB-75 CNS. Moreover, the TGI was 0.00826 µM in the assay on A498 renal; 2.37 µM and 4.46 µM with PC-3 prostate.
Regarding `COc1c(OC)c(OC)c2c(c1OC)c(=O)c1ccccc1n2C`, the TGI in the assay on MCF7 breast, in the assay on K-562 leukemia, with SW-620 colon, with COLO 205 colon, in the assay on DU-145 prostate and in the assay with SNB-75 CNS was greater than 100 µM in each case. Besides, the TGI in the assay with A498 renal and in the assay on PC-3 prostate was greater than 100 µM each time.
With `O=C(/C=C/c1cccnc1)NCCCCC1CCCN(C(=O)c2ccccc2)C1` (stereo not given), the GI50 in the assay with MCF7 breast was 37.5 µM; with K-562 leukemia, less than 0.01 µM; in the assay with SW-620 colon, less than 0.01 µM; with COLO 205 colon, 0.75 µM; in the assay with DU-145 prostate, less than 0.01 µM; in the assay on A498 renal, greater than 61.1 µM. In the assay on PC-3 prostate, the GI50 is 1.47 µM. Moreover, the TGI in the assay with MCF7 breast, in the assay with K-562 leukemia, in the assay with SW-620 colon, in the assay on COLO 205 colon, in the assay with DU-145 prostate and with SNB-75 CNS was greater than 100 µM each time. For the same compound, the TGI in the assay with A498 renal and in the assay with PC-3 prostate was greater than 100 µM in each case.
As for `COc1ccc(-n2nnnc2-c2c[nH]c3c(F)cc(F)cc23)cc1`, the GI50 in the assay with MCF7 breast was greater than 100 µM; in the assay with K-562 leukemia, greater than 100 µM; with SW-620 colon, greater than 100 µM; in the assay with COLO 205 colon it was greater than 100 µM; in the assay on DU-145 prostate, greater than 100 µM; in the assay on SNB-75 CNS, 24.3 µM. The results for the GI50 in the assay with A498 renal and in the assay with PC-3 prostate were 36.5 µM and greater than 100 µM, respectively. Besides, the TGI in the assay with MCF7 breast is greater than 100 µM; in the assay with K-562 leukemia, greater than 100 µM; in the assay with SW-620 colon it was greater than 100 µM; with COLO 205 colon, greater than 100 µM; in the assay on DU-145 prostate it was greater than 100 µM; in the assay on SNB-75 CNS it was 76.9 µM. Also, the TGI with A498 renal and in the assay on PC-3 prostate was greater than 100 µM in each case.
`C=C(CN1C(=O)[C@H]2CCCN2C(=O)c2ccccc21)c1ccc(C(=O)O)cc1`: the GI50 in the assay on MCF7 breast, in the assay on K-562 leukemia, with SW-620 colon, in the assay with COLO 205 colon, in the assay on DU-145 prostate and with SNB-75 CNS was greater than 100 µM in each case. For the same compound, the GI50 in the assay with A498 renal and in the assay on PC-3 prostate was greater than 100 µM each time. Further, the TGI with MCF7 breast, in the assay with K-562 leukemia, in the assay on SW-620 colon, in the assay on COLO 205 colon, in the assay on DU-145 prostate and in the assay with SNB-75 CNS was greater than 100 µM each time. For the same compound, the TGI in the assay with A498 renal and in the assay on PC-3 prostate was greater than 100 µM in each case.
